Test results: patent publication US10106526B2, “Inhibitors of cyclin-dependent kinase 7 (CDK7)” (SYROS PHARMACEUTICALS, INC., priority 2014, dated 2018)

Experiments:
[1] = molecular target: CDK7/Cyclin H/MAT1 trimeric complex (Homo sapiens, UniProt P50613); assay: CDK7 kinase assay, Caliper/LabChip EZ Reader (Biortus Biosciences); format: biochemical; settings: CDK7/Cyclin H/MAT1 10 nM, ATP 2 mM, FAM-CDK7tide 2 μM, 30 min incubation, read-out: CDK7 Inhibition (IC50)
Experimental: Compounds of the invention were further assayed for CDK7 activity at Biortus Biosciences (Jiangyin, Jiangsu Province, P.R. of China) using a CDK7 kinase assay developed with a Caliper/LabChip EZ Reader (Perkin Elmer, Waltham, Mass.). […] The incubation period was chosen such that the total fraction of phosphorylated peptide product produced was <20% for the uninhibited kinase.

A673 cells = assay: Inhibition of proliferation of A673 cells (CyQUANT, 72 hour); format: cell-based, human; settings: 72 hour proliferation
Procedure, shortened: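 Human Ewing's sarcoma A673 cells in DMEM + 10% FBS + 1 mM sodium pyruvate, 37 °C, 5% CO2, exposed to compounds from 4 μM to 126.4 pM (0.5 log dilutions) for 72 h. Proliferation read by CyQUANT; IC50 reported as binned categories.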

CDK7 = molecular target: T1, CDK7 (Homo sapiens, UniProt P50613); assay: CDK7 kinase activity, Adapta kinase assay (Life Technologies); format: biochemical; settings: Adapta kinase assay at Life Technologies; 10 μM down to 0.514 nM, 3-fold serial dilutions; read-out: CDK7 Inhibition (IC50)
T1 construct: purchased Life Technologies (Adapta kinase assay service)
T1 sequence (P50613 whole entry): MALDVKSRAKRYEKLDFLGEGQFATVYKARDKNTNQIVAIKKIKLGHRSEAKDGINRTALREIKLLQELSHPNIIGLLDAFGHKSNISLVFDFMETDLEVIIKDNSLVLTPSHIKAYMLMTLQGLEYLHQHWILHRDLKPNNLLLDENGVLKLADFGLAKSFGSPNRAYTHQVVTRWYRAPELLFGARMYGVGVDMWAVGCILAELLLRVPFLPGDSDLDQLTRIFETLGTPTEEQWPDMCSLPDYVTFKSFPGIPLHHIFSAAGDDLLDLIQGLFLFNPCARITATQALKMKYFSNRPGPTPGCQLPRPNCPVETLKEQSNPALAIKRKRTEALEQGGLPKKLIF
T1 sequence (P51946 whole entry partner): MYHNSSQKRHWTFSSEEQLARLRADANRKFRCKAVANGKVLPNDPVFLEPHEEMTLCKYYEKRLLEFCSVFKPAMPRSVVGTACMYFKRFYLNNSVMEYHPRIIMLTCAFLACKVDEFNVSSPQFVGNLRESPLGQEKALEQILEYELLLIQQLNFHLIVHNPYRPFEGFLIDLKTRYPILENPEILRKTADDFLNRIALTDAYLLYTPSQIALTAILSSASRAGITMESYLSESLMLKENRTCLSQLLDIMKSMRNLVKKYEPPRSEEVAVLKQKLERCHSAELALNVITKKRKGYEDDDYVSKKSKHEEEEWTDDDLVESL
T1 sequence (P51948 whole entry partner): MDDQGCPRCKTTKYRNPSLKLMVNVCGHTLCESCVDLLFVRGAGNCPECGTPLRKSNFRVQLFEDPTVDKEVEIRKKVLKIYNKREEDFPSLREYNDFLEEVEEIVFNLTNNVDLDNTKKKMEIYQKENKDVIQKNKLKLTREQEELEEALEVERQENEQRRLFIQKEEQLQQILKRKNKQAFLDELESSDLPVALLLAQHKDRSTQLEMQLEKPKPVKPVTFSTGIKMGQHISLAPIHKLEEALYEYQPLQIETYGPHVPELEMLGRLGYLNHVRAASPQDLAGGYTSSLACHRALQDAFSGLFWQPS
Procedure, shortened: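 Adapta kinase activity assay run as a commercial service; substrates not specified here. Compounds tested in 3-fold serial dilutions from 10 μM down to 0.514 nM.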

Chain of CDK7/Cyclin H/MAT1 trimeric complex (P50613 whole entry): as the sequence (P50613 whole entry) above
Chain of CDK7/Cyclin H/MAT1 trimeric complex (P51946 whole entry partner): as the sequence (P51946 whole entry partner) above
Chain of CDK7/Cyclin H/MAT1 trimeric complex (P51948 whole entry partner): as the sequence (P51948 whole entry partner) above

| Structure (SMILES) | IC50 [1] [nM] | IC50 (A673 cells; Homo sapiens) [nM] | IC50 (CDK7) [nM] | IC50 (A673 cells) [nM] |
| --- | --- | --- | --- | --- |
| CN(C)C/C=C/C(=O)Nc1ccc(C(=O)N[C@H]2CCC[C@@H](Nc3ncc(C(F)(F)F)c(-c4c[nH]c5ccccc45)n3)C2)nc1 [Compound 248, N-((1S,3R)-3-((4-(1H-indol-3-yl)-5-(trifluoromethyl)pyrimidin-2-yl)amino)cyclohexyl)-5-((E)-4-(dimethylamino)but-2-enamido)picolinamide] | < 100 | < 500 | < 100 | – |
| CN(C)CC=CC(=O)N1CC(N(C)C2CCCC(Nc3ncc(Cl)c(-c4c[nH]c5ccccc45)n3)C2)C1 (centres unmarked) [Compound 231] | < 100 | – | < 100 | – |
| CN(C)C/C=C/C(=O)Nc1ccc(C(=O)N[C@H]2CCC[C@@H](Nc3ncc(Cl)c(-c4cccc5[nH]ccc45)n3)C2)nc1 [Compound 264, N-((1S,3R)-3-((5-chloro-4-(1H-indol-4-yl)pyrimidin-2-yl)amino)cyclohexyl)-5-((E)-4-(dimethylamino)but-2-enamido)picolinamide] | < 100 | < 500 | – | – |
| CN(C)C/C=C/C(=O)Nc1ccc(CN[C@@]2(C)CCC[C@@H](Nc3ncc(C(F)(F)F)c(-c4c[nH]c5ccccc45)n3)C2)nc1 [Compound 403, (E)-4-(dimethylamino)-N-[6-[[[(1S,3R)-3-[[4-(1H-indol-3-yl)-5-(trifluoromethyl)pyrimidin-2-yl]amino]-1-methylcyclohexyl]amino]methyl]-3-pyridyl]but-2-enamide] | < 100 | < 500 | – | – |
| CN(C)C/C=C/C(=O)Nc1ccc(CN[C@@]2(C)CCC[C@@H](Nc3ncc(Cl)c(-c4c[nH]c5ccccc45)n3)C2)nc1 [Compound 294, (E)-N-(6-(((1S,3R)-3-(5-chloro-4-(1H-indol-3-yl)pyrimidin-2-ylamino)-1-methylcyclohexylamino)methyl)pyridin-3-yl)-4-(dimethylamino)but-2-enamide] | < 100 | < 500 | – | – |
| CCc1cnc(N[C@@H]2CCC[C@H](NC(=O)c3ccc(NC(=O)/C=C/CN(C)C)cn3)C2)nc1-c1c[nH]c2ccccc12 [Compound 262, 5-[[(E)-4-(dimethylamino)but-2-enoyl]amino]-N-[(1S,3R)-3-[[5-ethyl-4-(1H-indol-3-yl)pyrimidin-2-yl]amino]cyclohexyl]pyridine-2-carboxamide] | < 100 | < 500 | – | – |
| C=CC(=O)N1CC(F)(F)C[C@H]1C(=O)N[C@H]1CCC[C@@H](Nc2ncc(C#N)c(-c3c[nH]c4ccccc34)n2)C1 [compound 392] | < 100 | – | – | < 500 |
| C=CC(=O)N1CCN([C@]23CCC[C@](Nc4ncc(Cl)c(-c5c[nH]c6ccccc56)n4)(CC2)C3)CC1 [Compound 408, 1-(4-((1R,5S)-5-(5-Chloro-4-(1H-indol-3-yl)pyrimidin-2-ylamino)bicyclo[3.2.1]octan-1-yl)piperazin-1-yl)prop-2-en-1-One] | < 100 | < 500 | – | – |
| C=CC(=O)Nc1ccc(CN[C@H]2CCC[C@@H](Nc3ncc(Cl)c(-c4c[nH]c5ccccc45)n3)C2)nc1 [Compound 258] | < 100 | < 500 | – | – |

Continued, in another order:

| IC50 [1] [nM] | Structure (SMILES) | IC50 (A673 cells; Homo sapiens) [nM] | IC50 (CDK7) [nM] | IC50 (A673 cells) [nM] |
| --- | --- | --- | --- | --- |
| 100 to 1000 | C=CC(=O)NC1CC2CCC(C1)N2C1CCCC(Nc2ncc(Cl)c(-c3c[nH]c4ccccc34)n2)C1 (mixture of isomers) [Compound 259] | – | – | < 500 |
| 100 to 1000 | C=CC(=O)N1CCN([C@H]2CCC[C@@H](Nc3ncc(Cl)c(-c4c[nH]c5c(OC)cccc45)n3)C2)CC1 [compound 395] | – | – | < 500 |
| 100 to 1000 | C=CC(=O)N1CCN(C2CCCC(Nc3ncc(Cl)c(-c4c[nH]c5ccccc45)n3)C2)C(C)C1 (centres unmarked) [Compound 257] | – | – | < 500 |
| < 100 | C=CC(=O)NC1CCCN(C2CCCC(Nc3ncc(Cl)c(-c4c[nH]c5ccccc45)n3)C2)C1 (mixture of isomers) [Compound 256] | – | – | < 500 |
| 100 to 1000 | C=CC(=O)N1CCN([C@H]2CCC[C@@H](Nc3ncc(Cl)c(-c4n[nH]c5ccccc45)n3)C2)CC1 [compound 388] | – | – | < 500 |
